Holding throughout (type): biochemical
For assay [1], the target named is T1, recombinant human VAP-1 (Homo sapiens, UniProt Q16853).
T1 construct: purchased R&D systems
T1 sequence (Q16853 1-763): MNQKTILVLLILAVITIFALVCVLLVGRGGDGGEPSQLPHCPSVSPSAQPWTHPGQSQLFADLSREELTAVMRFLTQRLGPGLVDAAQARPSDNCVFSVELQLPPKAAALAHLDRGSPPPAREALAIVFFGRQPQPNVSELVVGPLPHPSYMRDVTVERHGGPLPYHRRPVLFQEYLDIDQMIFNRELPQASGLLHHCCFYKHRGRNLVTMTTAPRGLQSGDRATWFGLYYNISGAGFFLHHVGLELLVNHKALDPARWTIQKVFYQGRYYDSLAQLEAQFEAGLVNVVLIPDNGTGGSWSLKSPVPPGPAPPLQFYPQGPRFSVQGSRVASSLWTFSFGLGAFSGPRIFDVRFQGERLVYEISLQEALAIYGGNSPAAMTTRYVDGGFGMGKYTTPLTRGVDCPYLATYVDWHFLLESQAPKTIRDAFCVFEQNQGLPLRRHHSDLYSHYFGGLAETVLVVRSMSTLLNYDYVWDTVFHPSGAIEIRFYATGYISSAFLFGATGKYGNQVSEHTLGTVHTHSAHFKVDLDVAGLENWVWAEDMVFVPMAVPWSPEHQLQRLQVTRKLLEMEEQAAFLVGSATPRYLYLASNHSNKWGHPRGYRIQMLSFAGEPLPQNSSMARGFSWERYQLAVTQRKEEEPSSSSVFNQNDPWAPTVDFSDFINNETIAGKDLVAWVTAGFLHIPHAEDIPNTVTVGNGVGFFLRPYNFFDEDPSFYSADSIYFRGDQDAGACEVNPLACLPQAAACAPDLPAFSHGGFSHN
In words: Activity evaluation on recombinant human VAP-1 (Amplex Red/HRP-coupled hydrogen peroxide assay, benzylamine substrate). The settings on record: read-out: Inhibitory Activity (IC50, nM) human VAP-1. The procedure, abridged:
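Recombinant human VAP-1 in 50 mM sodium phosphate pH 7.4 preincubated 30 min at 37 °C with compound (8-point 1:3 series, <1% DMSO), then 1 mM benzylamine, 200 uM Amplex Red, 1 U/mL HRP added. H2O2-derived resorufin fluorescence (ex 544/em 590) followed 1–2 h; IC50 from four-parameter fit of rate inhibition.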

Assay [2] concerns the target T2, recombinant human DAO (diamine oxidase) (Homo sapiens, UniProt P19801).
T2 construct: purchased R&D systems
T2 sequence (P19801 20-751): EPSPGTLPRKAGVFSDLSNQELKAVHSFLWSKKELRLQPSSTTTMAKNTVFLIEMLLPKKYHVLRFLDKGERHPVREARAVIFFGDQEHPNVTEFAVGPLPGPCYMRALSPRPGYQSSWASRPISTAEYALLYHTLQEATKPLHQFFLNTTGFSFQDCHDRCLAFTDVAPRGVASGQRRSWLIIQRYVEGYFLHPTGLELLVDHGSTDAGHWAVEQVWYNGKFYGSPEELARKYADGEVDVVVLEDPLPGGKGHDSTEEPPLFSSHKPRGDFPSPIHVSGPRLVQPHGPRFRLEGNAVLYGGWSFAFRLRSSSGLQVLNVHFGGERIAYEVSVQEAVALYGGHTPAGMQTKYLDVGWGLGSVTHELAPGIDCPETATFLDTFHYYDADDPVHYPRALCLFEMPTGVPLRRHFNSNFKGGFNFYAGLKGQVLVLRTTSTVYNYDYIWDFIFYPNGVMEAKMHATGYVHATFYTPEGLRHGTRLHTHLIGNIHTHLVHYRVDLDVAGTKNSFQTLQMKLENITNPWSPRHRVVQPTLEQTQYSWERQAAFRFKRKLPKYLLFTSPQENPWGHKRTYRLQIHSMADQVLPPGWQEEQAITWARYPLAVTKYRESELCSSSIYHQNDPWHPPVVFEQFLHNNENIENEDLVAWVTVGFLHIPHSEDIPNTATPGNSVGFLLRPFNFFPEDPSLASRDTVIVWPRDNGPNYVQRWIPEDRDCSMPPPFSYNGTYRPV
As to the kind of experiment: Activity evaluation on recombinant human DAO (Amplex Red/HRP-coupled assay, 1 mM putrescine substrate). The following applies: read-out: Inhibitory Activity (IC50, nM) DAO. The essentials:
(§1)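 Compounds preincubated 30 min at 37 °C with enzyme in 50 mM sodium phosphate pH 7.4 (final DMSO <1%, 8-point 1:3 dilutions); reaction started with 200 uM Amplex Red, 1 U/mL HRP and substrate (MAO-A 0.5 mM tyramine, MAO-B 1 mM benzylamine, DAO 1 mM putrescine). Resorufin fluorescence (ex 544/em 590 nm) followed over 1-2 h; IC50 from four-parameter logistic fit.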

The target of assay [3] is T3, recombinant human MAO-B (monoamine oxidase-B) (Homo sapiens, UniProt P27338).
T3 construct: purchased Sigma-Aldrich
T3 sequence (P27338 1-520): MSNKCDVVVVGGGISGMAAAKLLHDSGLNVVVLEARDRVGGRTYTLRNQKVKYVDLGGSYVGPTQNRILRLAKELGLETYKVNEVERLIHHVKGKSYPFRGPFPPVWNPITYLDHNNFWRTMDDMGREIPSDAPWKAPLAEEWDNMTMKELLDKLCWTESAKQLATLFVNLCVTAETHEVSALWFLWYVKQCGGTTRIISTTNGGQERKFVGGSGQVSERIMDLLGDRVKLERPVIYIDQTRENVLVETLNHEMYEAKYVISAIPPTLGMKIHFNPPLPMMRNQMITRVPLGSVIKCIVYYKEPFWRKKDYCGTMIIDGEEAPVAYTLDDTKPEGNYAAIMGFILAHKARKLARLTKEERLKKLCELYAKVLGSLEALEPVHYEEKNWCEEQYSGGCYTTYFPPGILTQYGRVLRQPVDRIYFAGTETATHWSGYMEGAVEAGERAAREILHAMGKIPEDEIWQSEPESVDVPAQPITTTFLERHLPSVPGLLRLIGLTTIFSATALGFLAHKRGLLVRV
As to the kind of experiment: Activity evaluation on recombinant human MAO-B (Amplex Red/HRP-coupled assay, 1 mM benzylamine substrate). The following applies: read-out: Inhibitory Activity (IC50, nM) MAO-B. The essentials:
as §1

For assay [4], the target named is T4, recombinant human MAO-A (monoamine oxidase-A) (Homo sapiens, UniProt P21397).
T4 construct: purchased Sigma-Aldrich
T4 sequence (P21397 1-527): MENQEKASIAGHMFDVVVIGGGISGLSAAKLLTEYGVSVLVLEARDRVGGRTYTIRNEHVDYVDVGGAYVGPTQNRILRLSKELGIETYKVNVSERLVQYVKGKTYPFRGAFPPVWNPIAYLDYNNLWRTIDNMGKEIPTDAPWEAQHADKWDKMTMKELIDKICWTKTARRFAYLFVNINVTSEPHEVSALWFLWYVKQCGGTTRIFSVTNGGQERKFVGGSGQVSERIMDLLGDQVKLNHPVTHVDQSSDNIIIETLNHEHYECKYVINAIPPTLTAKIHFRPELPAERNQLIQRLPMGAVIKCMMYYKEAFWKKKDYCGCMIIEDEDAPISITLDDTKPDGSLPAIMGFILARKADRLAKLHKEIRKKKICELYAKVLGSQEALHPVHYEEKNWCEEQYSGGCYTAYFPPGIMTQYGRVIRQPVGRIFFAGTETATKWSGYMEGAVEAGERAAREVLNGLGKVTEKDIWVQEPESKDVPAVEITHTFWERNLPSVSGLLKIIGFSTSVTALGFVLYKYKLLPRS
As to the kind of experiment: Activity evaluation on recombinant human MAO-A (Amplex Red/HRP-coupled assay, 0.5 mM tyramine substrate). The settings on record: read-out: Inhibitory Activity (IC50, nM) MAO-A. The procedure, abridged:
as §1

[5] abbreviates: recombinant human VAP-1, 30 min preincubation at 37° C., 1 mM benzylamine.
The mark [6] stands for this setting: recombinant human VAP-1, benzylamine substrate.

Structures can show the parent of a compound that is named as a salt. Where two headings read alike, the source gives them in different places.

From US11168073B2, “3,3-difluoroallylamines or salts thereof and pharmaceutical compositions comprising the same” (YUHAN CORPORATION, priority 2018, dated 2021) come the findings set out here.

`CN(C)c1ccc(-c2ccc(CCn3cnn(CC(CN)=C(F)F)c3=O)s2)cn1` [Example 176, 2-[2-(aminomethyl)-3,3-difluoro-allyl]-4-[2-[5-[6-(dimethylamino)-3-pyridyl]-2-thienyl]ethyl]-1,2,4-triazol-3-one Trifluoroacetate]: the IC50 is 0.5 nM in assay [1] (setting [5]), 1100 nM in assay [2] (1 mM putrescine), above 100000 nM in assay [3] (1 mM benzylamine) and above 100000 nM in assay [4] (0.5 mM tyramine).
`NCC(Cn1ncn(-c2ccnc(-c3ccc(N4CCNCC4)cc3)c2)c1=O)=C(F)F` [Example 62, 2-[2-(aminomethyl)-3,3-difluoro-allyl]-4-[2-(4-piperazin-1-ylphenyl)-4-pyridyl]-1,2,4-triazol-3-one Ditrifluoroacetate]: the IC50 is 1.5 nM in assay [1] (setting [5]), 160 nM in assay [2] (1 mM putrescine), above 100000 nM in assay [3] (1 mM benzylamine) and above 100000 nM in assay [4] (0.5 mM tyramine).
Regarding `CCn1cc(-c2ccc(CCn3cnn(CC(CN)=C(F)F)c3=O)s2)cn1` [Example 180, 2-[2-(aminomethyl)-3,3-difluoro-allyl]-4-[2-[5-(1-ethylpyrazol-4-yl)-2-thienyl]ethyl]-1,2,4-triazol-3-one Trifluoroacetate], the IC50 in assay [1] (setting [5]) is 0.6 nM; in assay [2] (1 mM putrescine), 1900 nM; in assay [3] (1 mM benzylamine) it was 61000 nM; in assay [4] (0.5 mM tyramine) it was above 100000 nM.
As for `CN1C(=O)CCc2cc(-c3cnc(-n4cnn(CC(CN)=C(F)F)c4=O)c(F)c3)ccc21` [Example 87, 6-[6-[1-[2-(aminomethyl)-3,3-difluoro-allyl]-5-oxo-1,2,4-triazol-4-yl]-5-fluoro-3-pyridyl]-1-methyl-3,4-dihydroquinolin-2-one Trifluoroacetate], the IC50 was 0.1 nM in assay [1] (setting [5]), 22 nM in assay [2] (1 mM putrescine), 1100 nM in assay [3] (1 mM benzylamine) and above 100000 nM in assay [4] (0.5 mM tyramine).
As for `NCC(Cn1ncn(-c2cccc(-c3cccc(N4CCNCC4)c3)n2)c1=O)=C(F)F` [Example 216, 2-[2-(aminomethyl)-3,3-difluoro-allyl]-4-[6-(3-piperazin-1-ylphenyl)-2-pyridyl]-1,2,4-triazol-3-one Ditrifluoroacetate], the IC50 is 1.3 nM in assay [1] (setting [6]), 63 nM in assay [2] (1 mM putrescine substrate), above 100000 nM in assay [3] (1 mM benzylamine substrate) and above 100000 nM in assay [4] (0.5 mM tyramine substrate).
In the case of `NCC(Cn1ncn(Cc2cc(-c3cc(F)c4[nH]c(=O)ccc4c3)cs2)c1=O)=C(F)F` [Example 189, 6-[5-[[1-[2-(aminomethyl)-3,3-difluoro-allyl]-5-oxo-1,2,4-triazol-4-yl]methyl]-3-thienyl]-8-fluoro-1H-quinolin-2-one Trifluoroacetate], the IC50 in assay [1] (setting [6]) was 0.5 nM; in assay [2] (1 mM putrescine substrate) it was 23000 nM; in assay [3] (1 mM benzylamine substrate), above 100000 nM; in assay [4] (0.5 mM tyramine substrate), above 100000 nM.
For `CN1Cc2cc(-c3csc(Cn4cnn(CC(CN)=C(F)F)c4=O)c3)ccc2NC1=O` [Example 186, 6-[5-[[1-[2-(aminomethyl)-3,3-difluoro-allyl]-5-oxo-1,2,4-triazol-4-yl]methyl]-3-thienyl]-3-methyl-1,4-dihydroquinazolin-2-one Trifluoroacetate], the IC50 in assay [1] (setting [6]) is 0.5 nM; in assay [2] (1 mM putrescine substrate) it was 25000 nM; in assay [3] (1 mM benzylamine substrate) it was above 100000 nM; in assay [4] (0.5 mM tyramine substrate), above 100000 nM.
Turning to `Cc1cc(-n2cnn(CC(CN)=C(F)F)c2=O)cnc1-c1ccc(N(C)C)nc1` [Example 78, 2-[2-(aminomethyl)-3,3-difluoro-allyl]-4-[6-[6-(dimethylamino)-3-pyridyl]-5-methyl-3-pyridyl]-1,2,4-triazol-3-one Trifluoroacetate], the IC50 is 0.6 nM in assay [1] (setting [5]), 57 nM in assay [2] (1 mM putrescine), 9800 nM in assay [3] (1 mM benzylamine) and above 100000 nM in assay [4] (0.5 mM tyramine).
Consider `NCC(Cn1ncn(-c2ncc(-c3ccc(N4CCNCC4)cc3)cc2F)c1=O)=C(F)F` [Example 83, 2-[2-(aminomethyl)-3,3-difluoro-allyl]-4-[3-fluoro-5-(4-piperazin-1-ylphenyl)-2-pyridyl]-1,2,4-triazol-3-one Ditrifluoroacetate], for which the IC50 is 0.4 nM in assay [1] (setting [5]), 250 nM in assay [2] (1 mM putrescine), above 10000 nM in assay [3] (1 mM benzylamine) and above 100000 nM in assay [4] (0.5 mM tyramine).
The like results for `CN(C)c1ccc(-c2ccc(Cn3cnn(CC(CN)=C(F)F)c3=O)s2)cn1` [Example 112, 2-[2-(aminomethyl)-3,3-difluoro-allyl]-4-[[5-[6-(dimethylamino)-3-pyridyl]-2-thienyl]methyl]-1,2,4-triazol-3-one Trifluoroacetate] were, in that order, 0.2 nM, above 100000 nM, 26000 nM and above 100000 nM.
For the molecule `Cc1cc(C#Cc2ccc3c(n2)OCCN3)cnc1-n1cnn(CC(CN)=C(F)F)c1=O` [Example 246, 2-[2-(aminomethyl)-3,3-difluoro-allyl]-4-[5-[2-(2,3-dihydro-1H-pyrido[2,3-b][1,4]oxazin-6-yl)ethynyl]-3-methyl-2-pyridyl]-1,2,4-triazol-3-one ditrifluoroacetate], the IC50 in assay [1] (setting [6]) is 2.3 nM; in assay [2] (1 mM putrescine substrate) it was 59000 nM; in assay [3] (1 mM benzylamine substrate), 120000 nM; in assay [4] (0.5 mM tyramine substrate) it was above 100000 nM.

Broadly, the IC50 is the point on the concentration scale where inhibition reaches its midpoint.
